Experimental data from US12077503B2, “Substituted cyclic amides and their use as herbicides” (FMC CORPORATION, priority 2015, dated 2024).

What was measured:
Type in all cases: in vivo
Kochia (Kochia scoparia) [1] = experiment: Test A preemergence; conditions: Bassia scoparia, pre-emergence, 240 h, Preemergence
Method in brief: (§1)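 Each rating is a visual injury score from 0 to 100 given about 10 d after treatment, judged against untreated controls kept alongside in the greenhouse. In loam soil–sand blend, seeds got a preemergence directed soil spray, while postemergence plants were 2 to 10 cm tall at spraying.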

[2] = test system: barnyardgrass (Echinochloa crus-galli); experiment: Test A preemergence; conditions: Echinochloa crus-galli, pre-emergence, 240 h, Preemergence
Method in brief: as §1

[3] = test system: giant foxtail (Setaria faberii); experiment: Test A preemergence; conditions: Setaria faberi, pre-emergence, 240 h, Preemergence
Method in brief: as §1

[4] = test system: pigweed (Amaranthus retroflexus); experiment: Test A preemergence; conditions: Amaranthus retroflexus, pre-emergence, 240 h, Preemergence
[5] = test system: ragweed (common ragweed, Ambrosia elatior); experiment: Test A preemergence; conditions: Ambrosia artemisiifolia, pre-emergence, 240 h, Preemergence
Method in brief: as §1

[6] = test system: ryegrass, Italian (Italian ryegrass, Lolium multiflorum); experiment: Test A preemergence; conditions: Lolium multiflorum, pre-emergence, 240 h, Preemergence
Method in brief: as §1

[7] = test system: Galium (catchweed bedstraw, Galium aparine); experiment: Test A postemergence; conditions: Galium, post-emergence, 240 h, Postemergence, read-out: Plant response rating, Galium
Method in brief: as §1

Kochia (Kochia scoparia) [8] = experiment: Test A postemergence; conditions: Bassia scoparia, post-emergence, 240 h, Postemergence, read-out: Plant response rating, Kochia
Method in brief: as §1

[9] = test system: barnyardgrass (Echinochloa crus-galli); experiment: Test A postemergence; conditions: Echinochloa crus-galli, post-emergence, 240 h, Postemergence, read-out: Plant response rating, Barnyardgrass
Method in brief: as §1

[10] = test system: blackgrass (Alopecurus myosuroides); experiment: Test A postemergence; conditions: Alopecurus myosuroides, post-emergence, 240 h, Postemergence, read-out: Plant response rating, Blackgrass
Method in brief: as §1

corn (Zea mays) = experiment: Test A postemergence; conditions: Zea mays, post-emergence, 240 h, Postemergence
Method in brief: as §1

[11] = test system: giant foxtail (Setaria faberii); experiment: Test A postemergence; conditions: Setaria faberi, post-emergence, 240 h, Postemergence, read-out: Plant response rating, Foxtail, Giant
Method in brief: as §1

[12] = test system: pigweed (Amaranthus retroflexus); experiment: Test A postemergence; conditions: Amaranthus retroflexus, post-emergence, 240 h, Postemergence, read-out: Plant response rating, Pigweed
Method in brief: as §1

[13] = test system: ragweed (common ragweed, Ambrosia elatior); experiment: Test A postemergence; conditions: Ambrosia artemisiifolia, post-emergence, 240 h, Postemergence, read-out: Plant response rating, Ragweed
Method in brief: as §1

[14] = test system: ryegrass, Italian (Italian ryegrass, Lolium multiflorum); experiment: Test A postemergence; conditions: Lolium multiflorum, post-emergence, 240 h, Postemergence, read-out: Plant response rating, Ryegrass, Italian
Method in brief: as §1

[15] = test system: wheat (Triticum aestivum); experiment: Test A postemergence; conditions: Triticum aestivum, post-emergence, 240 h, Postemergence, read-out: Plant response rating, Wheat
Method in brief: as §1

[16] = test system: barnyardgrass (Echinochloa crus-galli); experiment: Test B flooded paddy test; conditions: Echinochloa crus-galli, 250 g ai/ha, Flood; 0 to 100 scale where 0 is no effect and 100 is complete control; read-out: Barnyardgrass plant response rating
Method in brief: (§2)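 Visual ratings (0 none to 100 complete control) are relative to untreated plants, taken 13–15 d after treatment in a greenhouse. Test material went straight into floodwater standing 3 cm above the soil, kept constant, on plants at the 2-leaf stage.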

[17] = test system: ducksalad (Heteranthera limosa); experiment: Test B flooded paddy test; conditions: Heteranthera limosa, 250 g ai/ha, Flood; 0 to 100 scale where 0 is no effect and 100 is complete control; read-out: Ducksalad plant response rating
Method in brief: as §2

rice (Oryra sativa) = experiment: Test B flooded paddy test; conditions: Oryza sativa, 250 g ai/ha, Flood; 0 to 100 scale where 0 is no effect and 100 is complete control; read-out: Rice plant response rating
Method in brief: as §2

[18] = test system: sedge, umbrella (small-flower umbrella sedge, Cyperus difformis); experiment: Test B flooded paddy test; conditions: Cyperus difformis, 250 g ai/ha, Flood; 0 to 100 scale where 0 is no effect and 100 is complete control; read-out: Sedge, Umbrella plant response rating
Method in brief: as §2

[19] = 125 g ai/ha, visual injury after approximately 10 d, 0 to 100 scale where 0 is no effect and 100 is complete control
[20] = 31 g ai/ha, visual injury after approx. 10 d, 0 to 100 scale, 0 no effect, 100 complete control

## O=C(Nc1cccc(Cl)c1F)[C@H]1C(=O)N(C2CC2)CC[C@@H]1c1ccc(F)cc1 [Compound 1006]
Kochia (Kochia scoparia) [1]; 31 g ai/ha, 0 to 100 scale where 0 is no effect and 100 is complete control, read-out: Kochia plant response rating
  pest or weed control at 31 g/ha: 0%
Kochia (Kochia scoparia) [1]; 125 g ai/ha, visual injury rating after approximately 10 d, read-out: Kochia plant response rating (0 to 100 scale, 0 is no effect, 100 is complete control)
  pest or weed control at 125 g/ha: 0%
[2]; 125 g ai/ha, visual injury rating after approximately 10 d, read-out: Barnyardgrass plant response rating (0 to 100 scale, 0 is no effect, 100 is complete control)
  pest or weed control at 125 g/ha: 0%
[2]; 31 g ai/ha, 0 to 100 scale (0 no effect, 100 complete control), read-out: Plant response rating, Barnyardgrass
  pest or weed control at 31 g/ha: 0%
[3]; 125 g ai/ha, visual injury rating after approximately 10 d, read-out: Foxtail, Giant plant response rating (0 to 100 scale, 0 is no effect, 100 is complete control)
  pest or weed control at 125 g/ha: 0%
[3]; 31 g ai/ha, 0 to 100 scale (0 no effect, 100 complete control), read-out: Plant response rating, Foxtail, Giant
  pest or weed control at 31 g/ha: 0%
[4]; 31 g ai/ha, 0 to 100 scale where 0 is no effect and 100 is complete control, read-out: Pigweed plant response rating
  pest or weed control at 31 g/ha: 0%
[4]; 125 g ai/ha, visual injury rating after approximately 10 d, read-out: Pigweed plant response rating (0 to 100 scale, 0 is no effect, 100 is complete control)
  pest or weed control at 125 g/ha: 0%
[5]; 31 g ai/ha, 0 to 100 scale where 0 is no effect and 100 is complete control, read-out: Ragweed plant response rating
  pest or weed control at 31 g/ha: 0%
[5]; 125 g ai/ha, visual injury rating after approximately 10 d, read-out: Ragweed plant response rating (0 to 100 scale, 0 is no effect, 100 is complete control)
  pest or weed control at 125 g/ha: 0%
[6]; 31 g ai/ha, 0 to 100 scale where 0 is no effect and 100 is complete control, read-out: Ryegrass, Italian plant response rating
  pest or weed control at 31 g/ha: 0%
[6]; 125 g ai/ha, visual injury rating after approximately 10 d, read-out: Ryegrass, Italian plant response rating (0 to 100 scale, 0 is no effect, 100 is complete control)
  pest or weed control at 125 g/ha: 0%
[7]; [19]
  pest or weed control at 125 g/ha: 0%
[7]; [20]
  pest or weed control at 31 g/ha: 0%
Kochia (Kochia scoparia) [8]; [19]
  pest or weed control at 125 g/ha: 0%
Kochia (Kochia scoparia) [8]; [20]
  pest or weed control at 31 g/ha: 0%
[9]; [19]
  pest or weed control at 125 g/ha: 0%
[9]; [20]
  pest or weed control at 31 g/ha: 0%
[10]; [19]
  pest or weed control at 125 g/ha: 0%
[10]; [20]
  pest or weed control at 31 g/ha: 0%
Corn (Zea mays); [19]
  Corn plant response rating (crop injury, 0 = no effect, 100 = complete kill) at 125 g/ha: 10%
Corn (Zea mays); [20]
  Corn plant response rating (crop injury, 0 = no effect, 100 = complete kill) at 31 g/ha: 0%
[11]; [19]
  pest or weed control at 125 g/ha: 0%
[11]; [20]
  pest or weed control at 31 g/ha: 0%
[12]; [19]
  pest or weed control at 125 g/ha: 0%
[12]; [20]
  pest or weed control at 31 g/ha: 0%
[13]; [19]
  pest or weed control at 125 g/ha: 10%
[13]; [20]
  pest or weed control at 31 g/ha: 10%
[14]; [19]
  pest or weed control at 125 g/ha: 0%
[14]; [20]
  pest or weed control at 31 g/ha: 0%
[15]; [19]
  plant injury at 125 g/ha: 0%
[15]; [20]
  plant injury at 31 g/ha: 0%
[16]
  pest or weed control at 250 g/ha: 0%
[17]
  pest or weed control at 250 g/ha: 0%
Rice (Oryra sativa)
  pest or weed control at 250 g/ha: 0%
[18]
  pest or weed control at 250 g/ha: 0%
